According to ChEMBL document CHEMBL1144833, “Synthesis and evaluation of novel aromatic substrates and competitive inhibitors of GABA aminotransferase” (Bioorg Med Chem Lett, 2008):

Tests used:
[1] = molecular target: T1, 4-aminobutyrate aminotransferase, mitochondrial (Homo sapiens, UniProt P80404); experiment: Activity at GABA-AT assessed as substrate activity relative to gamma amino butyric acid; set-up: concentration or dose not given beside the values
[2] = molecular target: T1, 4-aminobutyrate aminotransferase, mitochondrial; experiment: Inhibition of GABA-AT

T1 sequence (P80404 whole entry): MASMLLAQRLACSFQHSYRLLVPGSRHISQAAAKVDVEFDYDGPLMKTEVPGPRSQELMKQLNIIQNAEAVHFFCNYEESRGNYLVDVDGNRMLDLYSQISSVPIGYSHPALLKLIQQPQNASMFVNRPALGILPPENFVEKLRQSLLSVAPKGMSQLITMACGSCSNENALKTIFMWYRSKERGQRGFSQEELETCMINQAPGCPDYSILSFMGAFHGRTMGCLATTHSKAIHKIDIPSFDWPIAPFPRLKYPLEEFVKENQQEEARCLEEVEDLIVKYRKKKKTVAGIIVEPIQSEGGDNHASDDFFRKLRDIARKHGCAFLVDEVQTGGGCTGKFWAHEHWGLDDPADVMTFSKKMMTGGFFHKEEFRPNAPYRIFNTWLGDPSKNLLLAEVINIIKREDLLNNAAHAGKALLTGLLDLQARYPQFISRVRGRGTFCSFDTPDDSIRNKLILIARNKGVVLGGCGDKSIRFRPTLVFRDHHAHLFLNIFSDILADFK

SMILES | Relative stimulatory activity [1] | IC50 [2]
NCc1cccc(C(=O)O)c1 | 3.42% | > 5 mM
NCc1cccc(CC(=O)O)c1 | 0.78% | > 5 mM
NCc1ccccc1CC(=O)O | 5.65% | > 5 mM
Nc1ccccc1C(=O)O [ANTHRANILIC ACID] | 0% | > 5 mM
Nc1cccc(C(=O)O)c1 [3-AMINOBENZOIC ACID] | 0% | > 5 mM
NCc1ccccc1C(=O)O | 0% | > 5 mM
Nc1cccc(CC(=O)O)c1 | 0% | > 5 mM
